In data set [1] the test system is JIMT-1 cells. The data set can be described thus: Inhibition of in vitro proliferation of tumor cells by compounds (CTG, 6 days). The settings on record: Table 1, Test Example 2.1, small molecule fragments, 6 days of culture, CTG, read-out: JIMT-1 IC50. It counts as cell-based. The protocol:
(§1) To test the inhibitory activity of the pharmaceutical compounds on the in vitro proliferation of NCI-N87, JIMT-1 and MBA-MB-231 tumor cells. The cells were treated with the compounds at different concentrations in vitro, and after 6 days of culture, the proliferation of cells was detected using the CTG (CellTiter-Glo® Luminescent Cell Viability Assay, Promega, Cat. No. G7558) reagent, and the in vitro activity of the compounds was evaluated according to the IC50 value.
(§2) In the following, the test for the inhibition of the in vitro proliferation of NCI-N87 cells was taken as an example to illustrate the method of the present application for testing the inhibitory activity of the compounds of the present application on the in vitro proliferation of tumor cells. The method was also applicable to, but not limited to, the test for the inhibitory activity on the in vitro proliferation of other tumor cells. • 1. Culturing of cells: NCI-N87 cells were cultured in RPMI-1640 medium containing 10% FBS. • 2. Preparation of cells: NCI-N87 cells in logarithmic phase were taken, washed with PBS once, and digested with 2-3 mL of trypsin for 2-3 min. After the cells were digested completely, 10-15 mL of cell culture was added to elute the digested cells. The eluate was centrifuged at 1000 rpm for 5 min, and the supernatant was discarded. The resulting cells were resuspended in 10-20 mL of cell culture to obtain a single cell suspension. • 3. Cell plating: the NCI-N87 single cell suspension was mixed well and adjusted to a viable cell density of 6×10^4 cells/mL with cell culture. The cell suspension with the adjusted density was mixed well and added to a 96-well cell culture plate at 50 μL/well. The culture plate was incubated in an incubator for 18 h (37° C., 5% CO2). • 4. Preparation of compounds: the compounds were dissolved in DMSO to obtain stock solutions at an initial concentration of 10 mM. There were 8 concentrations in total for the small molecule compounds: 300 nM, 100 nM, 30 nM, 10 nM, 3 nM, 1 nM, 0.3 nM, and 0.1 nM. • 5. Sample adding: the prepared samples to be detected at different concentrations were added to the culture plate, and two duplicate wells were set for each sample. The culture plate was incubated in an incubator for 6 days (37° C., 5% CO2). • 6. Color developing: the 96-well cell culture plate was taken out, added with the CTG reagent at 50 μL/well, and incubated at room temperature for 10 min. • 7. Plate reading: the 96-well cell culture plate was taken out, placed in a microplate reader, and measured for the chemiluminescence using the microplate reader. Data Analysis
(§3) Data were processed and analyzed using Microsoft Excel and Graphpad Prism 5.
(§4) To test the inhibitory activity of the pharmaceutical compounds on the in vitro proliferation of NCI-N87, JIMT-1 and MBA-MB-231 tumor cells. The cells were treated with compounds at different concentrations in vitro, and after 6 days of culture, the proliferation of cells was detected using CTG (CellTiter-Glo® Luminescent Cell Viability Assay, Promega, Cat. No. G7558) reagents, and the in vitro activity of the compounds was evaluated according to the IC50 value. • 1. Culturing of cells: NCI-N87/JIMT-1/MBA-MB-231 cells were cultured in RPMI-1640 medium containing 10% FBS. • 2. Preparation of cells: NCI-N87/JIMT-1/MBA-MB-231 cells in logarithmic phase were taken, washed with PBS once, and digested with 2-3 mL of trypsin for 2-3 min. After the cells were digested completely, 10-15 mL of cell culture was added to elute the digested cells. The eluate was centrifuged at 1000 rpm for 5 min, and the supernatant was discarded. The resulting cells were resuspended in 10-20 mL of cell culture to obtain a single cell suspension. • 3. Cell plating: the NCI-N87/JIMT-1/MBA-MB-231 single cell suspension was mixed well and adjusted to a viable cell density of 6×10^4 cells/mL with cell culture. […]

Data set [2] deals with NCI-N87 cells. Described as above. It counts as cell-based. The settings on record: small molecule fragments, 6 days of culture, CTG, read-out: NCI-N87 IC50. The method, then:
as §1, §2, §3, §4

In data set [3] the target is T1, P-gp (Homo sapiens, UniProt P08183).
T1 construct: endogenous in cells; host or cells: Caco-2
The data set can be described thus: Study on transporter substrates in Caco-2 cell model. It counts as in vitro ADME. The note with it: Caco-2. The protocol:
The resistance of each well was recorded. […] 2. […] The plate was vortexed for 10 min. The samples were centrifuged. […] HBSS was added to the basolateral compartment. […] 3. Data Analysis
Data were calculated using Microsoft Excel.
A general note: Passage across Caco-2 layers is used to estimate intestinal permeability.

Data set [4] concerns the target T2, BCRP (Homo sapiens, UniProt Q9UNQ0).
T2 sequence (Q9UNQ0 1-655): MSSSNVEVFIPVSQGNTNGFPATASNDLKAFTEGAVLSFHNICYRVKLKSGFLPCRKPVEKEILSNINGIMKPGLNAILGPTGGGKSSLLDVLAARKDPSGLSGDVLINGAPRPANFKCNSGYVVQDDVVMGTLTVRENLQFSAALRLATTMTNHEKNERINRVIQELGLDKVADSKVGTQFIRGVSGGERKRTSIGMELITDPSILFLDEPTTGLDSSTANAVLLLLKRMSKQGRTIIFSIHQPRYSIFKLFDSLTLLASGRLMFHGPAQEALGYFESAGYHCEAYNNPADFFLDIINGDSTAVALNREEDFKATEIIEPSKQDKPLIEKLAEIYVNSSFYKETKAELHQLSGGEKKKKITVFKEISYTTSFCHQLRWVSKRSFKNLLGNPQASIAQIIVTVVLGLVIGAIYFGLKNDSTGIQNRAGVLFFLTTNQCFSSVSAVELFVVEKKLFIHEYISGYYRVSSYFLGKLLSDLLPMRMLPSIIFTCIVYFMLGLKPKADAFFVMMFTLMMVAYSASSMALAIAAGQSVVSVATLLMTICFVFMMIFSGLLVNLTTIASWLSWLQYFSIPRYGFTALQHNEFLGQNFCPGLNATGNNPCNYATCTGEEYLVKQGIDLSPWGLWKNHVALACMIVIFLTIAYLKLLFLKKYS
The note with it: Caco-2.

In data set [5] the target is T2, BCRP. The data set can be described thus: in vitro.
The target of data set [6] is T2, BCRP. The data set can be described thus: Study on transporter substrates in Caco-2 cell model. The settings on record: human, Caco-2.
Data set [7] concerns MDA-MB-231 cells. The data set can be described thus: Inhibition of in vitro proliferation of tumor cells by compounds (CTG, 6 days). It counts as cell-based. The note with it: Homo sapiens, MDA-MB-231, 144 h, Table 3, Test Example 2.3; small molecule fragments; 6 days of culture, CTG; read-out: MDA-MB-231 IC50. The protocol: To test the inhibitory activity of the pharmaceutical compounds on the in vitro proliferation of NCI-N87, JIMT-1 and MBA-MB-231 tumor cells. The cells were treated with compounds at different concentrations in vitro, and after 6 days of culture, the proliferation of cells was detected using CTG (CellTiter-Glo® Luminescent Cell Viability Assay, Promega, Cat. No. G7558) reagents, and the in vitro activity of the compounds was evaluated according to the IC50 value. • 1. Culturing of cells: NCI-N87/JIMT-1/MBA-MB-231 cells were cultured in RPMI-1640 medium containing 10% FBS. • 2. Preparation of cells: NCI-N87/JIMT-1/MBA-MB-231 cells in logarithmic phase were taken, washed with PBS once, and digested with 2-3 mL of trypsin for 2-3 min. After the cells were digested completely, 10-15 mL of cell culture was added to elute the digested cells. The eluate was centrifuged at 1000 rpm for 5 min, and the supernatant was discarded. The resulting cells were resuspended in 10-20 mL of cell culture to obtain a single cell suspension. • 3. Cell plating: the NCI-N87/JIMT-1/MBA-MB-231 single cell suspension was mixed well and adjusted to a viable cell density of 6×10^4 cells/mL with cell culture. The cell suspension with the adjusted density was mixed well and added to a 96-well cell culture plate at 50 μL/well. The culture plate was incubated in an incubator for 18 h (37° C., 5% CO2). • 4. Preparation of compounds: the compounds were dissolved in DMSO to obtain stock solutions at an initial concentration of 10 mM. There were 8 concentrations in total for the small molecule compounds: 300 nM, 100 nM, 30 nM, 10 nM, 3 nM, 1 nM, 0.3 nM, and 0.1 nM. • 5. Sample adding: the prepared samples to be detected at different concentrations were added to the culture plate, and two duplicate wells were set for each sample. The culture plate was incubated in an incubator for 6 days (37° C., 5% CO2). • 6. Color developing: the 96-well cell culture plate was taken out, added with the CTG reagent at 50 μL/well, and incubated at room temperature for 10 min. • 7. Plate reading: the 96-well cell culture plate was taken out, placed in a microplate reader, and measured for the chemiluminescence using the microplate reader. Data analysis: data were processed and analyzed using Microsoft Excel and Graphpad Prism 5.

For data set [8], the system named is Colo205 cells. The description is as above. The settings on record: Homo sapiens, COLO 205, 144 h, Table 4, Test Example 2.4, small molecule fragments, 6 days of culture. It counts as cell-based. The protocol:
To test the inhibitory activity of the pharmaceutical compounds on the in vitro proliferation of NCI-N87 and Colo205 tumor cells. The cells were treated with compounds at different concentrations in vitro, and after 6 days of culture, the proliferation of cells was detected using CTG (CellTiter-Glo® Luminescent Cell Viability Assay, Promega, Cat. No. G7558) reagents, and the in vitro activity of the compounds was evaluated according to the IC50 value. • 1. Culturing of cells: NCI-N87/Colo205 cells were cultured in RPMI-1640 medium containing 10% FBS. • 2. Preparation of cells: NCI-N87/Colo205 cells in logarithmic phase were taken, washed with PBS once, and digested with 2-3 mL of trypsin for 2-3 min. After the cells were digested completely, 10-15 mL of cell culture was added to elute the digested cells. The eluate was centrifuged at 1000 rpm for 5 min, and the supernatant was discarded. […] Sample adding: the prepared samples to be detected at different concentrations were added to the culture plate, and two duplicate wells were set for each sample. […] Plate reading: the 96-well cell culture plate was taken out, placed in a microplate reader, and measured for the chemiluminescence using the microplate reader. Data analysis: data were processed and analyzed using Microsoft Excel and Graphpad Prism 5.

Like-named read-outs stand apart in the source and are kept apart here.

T1 sequence (P08183 whole entry): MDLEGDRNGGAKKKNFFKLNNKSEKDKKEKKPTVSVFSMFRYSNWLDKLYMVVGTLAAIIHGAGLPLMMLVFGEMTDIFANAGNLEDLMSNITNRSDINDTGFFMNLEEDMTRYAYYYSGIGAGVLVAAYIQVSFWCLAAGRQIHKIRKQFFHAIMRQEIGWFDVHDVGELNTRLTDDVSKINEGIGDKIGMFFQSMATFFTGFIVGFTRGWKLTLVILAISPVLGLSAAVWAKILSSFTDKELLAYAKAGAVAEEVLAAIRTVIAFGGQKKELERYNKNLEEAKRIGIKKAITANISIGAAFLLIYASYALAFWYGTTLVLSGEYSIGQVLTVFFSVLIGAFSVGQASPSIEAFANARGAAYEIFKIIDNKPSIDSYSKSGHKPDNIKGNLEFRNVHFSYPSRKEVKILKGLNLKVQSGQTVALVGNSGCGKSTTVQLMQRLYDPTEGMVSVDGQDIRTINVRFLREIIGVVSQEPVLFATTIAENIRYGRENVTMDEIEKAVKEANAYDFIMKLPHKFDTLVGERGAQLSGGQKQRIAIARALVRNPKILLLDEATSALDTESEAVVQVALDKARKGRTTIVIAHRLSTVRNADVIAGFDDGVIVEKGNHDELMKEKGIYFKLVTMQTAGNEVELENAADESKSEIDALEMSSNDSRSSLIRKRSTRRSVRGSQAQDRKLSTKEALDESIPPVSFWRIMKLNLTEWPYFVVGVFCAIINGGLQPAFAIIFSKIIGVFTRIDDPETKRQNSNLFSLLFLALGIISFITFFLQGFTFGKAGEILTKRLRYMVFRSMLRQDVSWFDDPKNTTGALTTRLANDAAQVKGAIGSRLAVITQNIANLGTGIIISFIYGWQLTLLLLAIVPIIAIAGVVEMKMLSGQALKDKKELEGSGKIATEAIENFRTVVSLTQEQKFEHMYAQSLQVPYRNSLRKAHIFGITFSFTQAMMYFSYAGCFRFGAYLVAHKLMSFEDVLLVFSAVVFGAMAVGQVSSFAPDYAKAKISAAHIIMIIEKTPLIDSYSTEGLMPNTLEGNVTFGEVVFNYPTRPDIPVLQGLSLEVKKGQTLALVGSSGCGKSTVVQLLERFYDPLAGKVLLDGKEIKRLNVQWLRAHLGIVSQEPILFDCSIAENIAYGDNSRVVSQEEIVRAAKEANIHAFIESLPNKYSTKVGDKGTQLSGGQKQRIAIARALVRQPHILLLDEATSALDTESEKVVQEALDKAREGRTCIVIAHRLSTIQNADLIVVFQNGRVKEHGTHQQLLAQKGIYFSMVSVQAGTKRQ

As to `CC[C@@]1(O)C(=O)OCc2c1cc1n(c2=O)Cc2c-1nc1cc(F)c(C)c3c1c2[C@@H](N1CCC(O)C1=O)CC3` (some centres unmarked) [P-I-1], the IC50 (commonly the point on the concentration scale where inhibition reaches its midpoint) stood at 23.7 nM in data set [1] (Homo sapiens, JIMT-1, 144 h); 21.8 nM in data set [1]; 97.3 nM in data set [2] (Homo sapiens, NCI-N87, 144 h, Table 1, Test Example 2.1); 61.6 nM in data set [2] (Table 1, Test Example 2.1). In addition, the P-gp substrate result in data set [3] is reported as “neither transporter P-gp substrates nor transporter BCRP substrates”. The “Papp (A-B) (10^−6, cm/s)” value in data set [4] was 0.21 10^−6, cm/s. Moreover, the “Papp (B-A) (10^−6, cm/s)” value in data set [4] is 4.94 10^−6, cm/s. Besides, in data set [5] (Caco-2, Papp (A-B) (10^−6, cm/s)), the Papp A→B (commonly how fast a substance crosses the layer from the apical side) at 2 h turned out to be 0.13 ×10⁻⁶ cm/s. In addition, the Papp B→A (in general, how fast a substance crosses the layer from the basolateral side) at 2 h in data set [5] (Caco-2, Papp (B-A) (10^−6, cm/s)) turned out to be 4.06 ×10⁻⁶ cm/s. The efflux ratio – broadly, a quotient of directional permeabilities that is used to spot active efflux – at 2 h in data set [6] (Caco-2, Efflux ratio, KO143 −) turned out to be 32.4. The recovery at 2 h in data set [6] (Caco-2, Recovery rate (%) AP-BL, KO143 −) is 80.5%; in data set [6] (Caco-2, Recovery rate (%) BL-AP, KO143 −) it was 76.1%; in data set [6] (Caco-2, with KO143 (concentration not stated), Recovery rate (%) AP-BL, KO143 +), 81.5%; in data set [6] (Caco-2, with KO143 (concentration not stated), Recovery rate (%) BL-AP, KO143 +) it was 80.3%.
Consider `CC[C@@]1(O)C(=O)OCc2c1cc1n(c2=O)Cc2c-1nc1cc(F)c(C)c3c1c2[C@@H](NC(=O)C[C@H](C)O)CC3` [P-III-30, (S)-N-((1S,9S)-9-ethyl-5-fluoro-9-hydroxy-4-methyl-10,13-dioxo-2,3,9,10,13,15-hexahydro-1H,12H-benzo[de]pyrano[3′,4′:6,7]indolizino[1,2-b]quinolin-1-yl)-3-hydroxybutanamide], for which the IC50 in data set [2] (Homo sapiens, NCI-N87, 144 h, Table 4, Test Example 2.4) was found to be 3 nM; in data set [7], 28.5 nM; in data set [8], 9 nM.

The record behind these values is patent US11952384B2, “Anti-tumor compound and preparation method and use thereof” (DUALITY BIOLOGICS (SUZHOU) CO., LTD., priority 2020, dated 2024).
